Holding throughout (format): cell-based
For experiment [1], the system named is 786-O cells. Nature of the experiment: Free drug 48 hour Cell Titer Glo cytotoxicity, 786-O. The conditions noted are these: Homo sapiens, 786-0, Table 3, 48 hours, read-out: IC50 Summary for Free Drugs, 786-O. Here is the method: (§1) Referring to the following Table 3, the activities of compounds 23, 25, are compared to that of compound 11 on 786-O, Caki-1, MCF-7, HL-60, THP-1, HEL, and TF1 cells. Cells were plated in 150 μL growth media per well into black-sided clear-bottom 96-well plates (Costar, Corning) and allowed to settle for 1 hour in the biological cabinet before placing in the incubator at 37° C., 5% CO2. The following day, 4× concentration of drug stocks were prepared, and then titrated as 10-fold serial dilutions producing 8-point dose curves and added at 50 μl per well in duplicate. Cells were then incubated for 48 hours at 37° C., 5% CO2. Cytotoxicity was measure by incubating with 100 μL Cell Titer Glo (Promega) solution for 1 hour, and then luminescence was measured on a Fusion HT plate reader (Perkin Elmer). Data was processed with Excel (Microsoft) and GraphPad (Prism) to produce dose response curves and IC50 values were generated and data collected.
On the technique in general: ATP-based viability assays read luminescence as a measure of living cells.

Experiment [2] has as its system THP-1 cells. The experiment is described as follows: Free drug 48 hour Cell Titer Glo cytotoxicity, THP-1. Conditions: Homo sapiens, Table 3, 48 hours, read-out: IC50 Summary for Free Drugs, THP-1. As for the experimental part:
as §1

The subject of experiment [3] is HL-60 cells. Nature of the experiment: Free drug 48 hour Cell Titer Glo cytotoxicity, HL-60. Conditions: Homo sapiens, Table 3, 48 hours, read-out: IC50 Summary for Free Drugs, HL-60. As for the experimental part: as §1
In experiment [4] the test system is Caki-1 cells. The experiment is described as follows: Free drug 48 hour Cell Titer Glo cytotoxicity, Caki-1. The conditions noted are these: Homo sapiens, Table 3, 48 hours, read-out: IC50 Summary for Free Drugs, Caki-1. Here is the method: as §1
The test system of experiment [5] is A2780 parental cell line. The experiment is described as follows: A2780 assay (MTT cytotoxicity). The conditions noted are these: Homo sapiens, 72 hours. As for the experimental part: The A2780 parental cell line was grown in Dulbecco's Modified Eagles' Media (DMEM) containing ˜10% Foetal Calf Serum (FCS) and ˜1% 200 mM L-Glutamine solution and grown in Corning Cellbind 75 cm^2 flasks.
A 190 μl cell suspension was added (at 1×10^4) to each well of columns 2 to 11 of a 96 well plate (Nunc 96F flat bottom TC plate), 190 μl of media was added to each well of columns 1 and 12. The media was Dulbecco's Modified Eagles' Media (DMEM) (which included ˜10% Foetal Calf Serum (FCS) and ˜1% 200 mM L-Glutamine solution).
Plates were incubated overnight at 37° C. before addition of drug if cells were adherent, 200 μM of the test compound solutions (in 100% DMSO) were serially diluted across a 96 well plate. Each resulting point was then further diluted 1/10 into sterile distilled water (SDW).
To the cell negative blanks and compound negative control wells, 10% DMSO was added at 5% v/v. Assay plates were incubated for the following durations at 37° C. in 5% CO2 in a humidified incubator for 72 hours. Following incubation, MTT solution to a final concentration of 1.5 μM was added to each well. The plates were then incubated for a further 4 hours at 37° C. in 5% CO2 in a humidified incubator. […]
Plates were read at 540 nm absorbance using an Envision plate reader. Data was analysed using Microsoft Excel and GraphPad Prism and IC50 values obtained.

Experiment [6] has as its system TF1a cells. The experiment is described as follows: Free drug 48 hour Cell Titer Glo cytotoxicity, TF1a. Conditions: TF-1a, Table 3, 48 hours, read-out: IC50 Summary for Free Drugs, TF1a. Here is the method:
as §1

The subject of experiment [7] is MCF-7 cells. The experiment is described as follows: Free drug 48 hour Cell Titer Glo cytotoxicity, MCF-7. The conditions noted are these: Homo sapiens, MCF7, Table 3, 48 hours, read-out: IC50 Summary for Free Drugs, MCF-7. Here is the method:
as §1

Experiment [8] has as its system HEL cells. Nature of the experiment: Free drug 48 hour Cell Titer Glo cytotoxicity, HEL. The conditions noted are these: Homo sapiens, Table 3, 48 hours, read-out: IC50 Summary for Free Drugs, HEL. As for the experimental part: as §1
Experiment [9] has as its system MCF-7 cells. Nature of the experiment: Free drug cytotoxicity assay, MCF-7 (Table 2). The conditions noted are these: Homo sapiens, MCF7; Table 2; read-out: IC50 Summary for Free Drugs, MCF-7. As for the experimental part: (§2) For a 96-hour assay, cells cultured in log-phase growth were seeded for 24 h in 96-well plates containing 150 μL RPMI 1640 supplemented with 20% FBS. Serial dilutions of test article (i.e., free drug) in cell culture media were prepared at 4× working concentration; 50 μL of each dilution was added to the 96-well plates. Following addition of test article, the cells were incubated with test articles for 4 days at 37° C. Resazurin was then added to each well to achieve a 50 μM final concentration, and the plates were incubated for an additional 4 h at 37° C. The plates were then read for the extent of dye reduction on a Fusion HT plate reader (Packard Instruments, Meridien, Conn., USA) with excitation and emission wavelengths of 530 and 590 nm, respectively. The IC50 value, determined in triplicate, is defined here as the concentration that results in a 50% reduction in cell growth relative to untreated controls.
Referring to the following Table 2, the activity of compounds 28, 30 and 32 is shown on L428, 786-O, HEL, HL-60 and MCF-7 cells, as well as the activity for compound 19 on MCF-7 cells.

Experiment [10] concerns renal cell cancer cell line, 786-O. Nature of the experiment: Free drug 96-hour resazurin cytotoxicity assay, 786-O. The conditions noted are these: Homo sapiens, 786-0, Table 1, 96-hour assay, read-out: IC50 Summary for Free Drugs, 786-O. Here is the method:
(§3) The cytotoxicity of various free drug compounds was tested on a renal cell cancer cell line, 786-O, a Hodgkin lymphoma cell line, L428 and two AML cell lines, HL60 and HEL.
as §2

Experiment [11] concerns AML cell line HEL. Nature of the experiment: Free drug 96-hour resazurin cytotoxicity assay, HEL. The conditions noted are these: Table 1, 96-hour assay, read-out: IC50 Summary for Free Drugs, HEL. As for the experimental part: as §3, §2
(The colour change of resazurin is a common sign of viable cells or microbes.)

The subject of experiment [12] is Hodgkin lymphoma cell line, L428. Nature of the experiment: Free drug 96-hour resazurin cytotoxicity assay, L428. The conditions noted are these: Homo sapiens, L-428, Table 1, 96-hour assay, read-out: IC50 Summary for Free Drugs, L428. Here is the method: as §3, §2
In experiment [13] the test system is AML cell line HL60. Nature of the experiment: Free drug 96-hour resazurin cytotoxicity assay, HL60. Conditions: Homo sapiens, HL-60, Table 1, 96-hour assay, read-out: IC50 Summary for Free Drugs, HL60. As for the experimental part:
as §3, §2

The results in this text go back to US10561739B2, “Targeted pyrrolobenzodiazapine conjugates” (priority 2010, dated 2020).

As to `COc1ccc(C2=CN3C(=O)c4cc(OC)c(OCCCOc5cc6c(cc5OC)C(=O)N5C=C(c7ccc(N)cc7)C[C@H]5C=N6)cc4N=C[C@@H]3C2)cc1` [Compound 11, (S)-2-(4-aminophenyl)-7-methoxy-8-(3-((S)-7-methoxy-2-(4-methoxyphenyl)-5-oxo-5,11a-dihydro-1H-pyrrolo[2,1-c][1,4]benzodiazepine-8-yloxy)propoxy)-1H-pyrrolo[2,1-c][1,4]benzodiazepine-5(11aH)-one], the IC50 was determined as 0.4 nM in experiment [1]; 1 nM in [2]; 0.01 nM in [3]; 0.2 nM in experiment [4]; 11.7 µM in experiment [5]; 1 nM in experiment [6]. Also, the half-inhibitory concentration (IC50) in experiment [7] was found to be 1 nM; in experiment [8] it was 0.03 nM.
`COc1ccc(C2=CN3C(=O)c4cc(OC)c(OCCCOc5cc6c(cc5OC)C(=O)N5C=C(c7cccc(N)c7)C[C@H]5C=N6)cc4N=C[C@@H]3C2)cc1` [Compound 19, (S)-2-(3-aminophenyl)-7-methoxy-8-(3-((S)-7-methoxy-2-(4-methoxyphenyl)-5-oxo-5,11a-dihydro-1H-pyrrolo[2,1-c][1,4]benzodiazepine-8-yloxy)propyloxy)-1H-pyrrolo[2,1-c][1,4]benzodiazepine-5(11aH)-one]: the 50% inhibitory concentration (IC50) came to 5 nM in experiment [9]; 0.5 nM in experiment [10]; 0.2 nM in experiment [11]; 1 nM in [12]; 0.6 nM in [13].

By IC50 is commonly meant the midpoint of a concentration-inhibition curve.
